Molecules are shown by their SMILES.

The record followed here is patent US20210395679A1, “IN VITRO CELL CULTURE SYSTEM FOR PRODUCING HEPATOCYTE-LIKE CELLS AND USES THEREOF” (CHILDREN'S HOSPITAL MEDICAL CENTER, priority 2018, published 2021).

For this assay, the target named is T1, MRP4 (Homo sapiens, UniProt O15439).
T1 sequence (O15439 1-1325): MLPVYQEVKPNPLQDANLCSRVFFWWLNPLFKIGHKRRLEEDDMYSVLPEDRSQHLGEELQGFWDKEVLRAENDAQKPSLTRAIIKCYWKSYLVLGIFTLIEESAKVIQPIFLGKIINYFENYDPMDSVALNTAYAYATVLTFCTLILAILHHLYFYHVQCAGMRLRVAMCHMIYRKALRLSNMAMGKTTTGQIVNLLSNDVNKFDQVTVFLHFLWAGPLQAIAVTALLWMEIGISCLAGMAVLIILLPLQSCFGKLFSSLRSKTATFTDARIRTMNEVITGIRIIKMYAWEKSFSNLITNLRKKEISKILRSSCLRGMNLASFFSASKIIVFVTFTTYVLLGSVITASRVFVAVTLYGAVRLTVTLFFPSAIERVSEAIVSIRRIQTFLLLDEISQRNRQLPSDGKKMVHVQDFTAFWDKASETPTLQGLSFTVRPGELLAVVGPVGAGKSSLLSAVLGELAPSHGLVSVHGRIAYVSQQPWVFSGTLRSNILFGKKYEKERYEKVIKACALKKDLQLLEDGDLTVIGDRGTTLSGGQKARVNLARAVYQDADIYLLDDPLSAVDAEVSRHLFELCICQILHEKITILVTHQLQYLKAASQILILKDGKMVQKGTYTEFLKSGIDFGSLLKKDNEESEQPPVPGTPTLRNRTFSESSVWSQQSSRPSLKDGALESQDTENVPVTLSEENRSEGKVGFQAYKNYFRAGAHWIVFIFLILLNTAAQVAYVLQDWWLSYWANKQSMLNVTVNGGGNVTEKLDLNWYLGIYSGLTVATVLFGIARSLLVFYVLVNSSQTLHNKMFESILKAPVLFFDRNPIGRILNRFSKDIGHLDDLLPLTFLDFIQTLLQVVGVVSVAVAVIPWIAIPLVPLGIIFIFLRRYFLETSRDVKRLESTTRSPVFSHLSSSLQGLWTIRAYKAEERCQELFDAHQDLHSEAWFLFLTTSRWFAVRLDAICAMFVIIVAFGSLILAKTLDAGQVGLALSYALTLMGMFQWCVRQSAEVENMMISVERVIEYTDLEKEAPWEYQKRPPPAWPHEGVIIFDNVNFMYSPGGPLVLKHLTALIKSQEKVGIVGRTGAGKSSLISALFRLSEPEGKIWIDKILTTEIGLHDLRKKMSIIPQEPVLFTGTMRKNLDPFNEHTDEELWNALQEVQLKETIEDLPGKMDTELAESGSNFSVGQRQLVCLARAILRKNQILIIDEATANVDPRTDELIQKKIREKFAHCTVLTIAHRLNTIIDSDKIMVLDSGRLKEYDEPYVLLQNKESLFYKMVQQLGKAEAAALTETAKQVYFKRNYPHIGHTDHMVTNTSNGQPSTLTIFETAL
Briefly: Wash-out assay of intracellular-to-basolateral D4-TCA export with or without MRP4 inhibitor. As to conditions: normal i-Hep, 1 h D4-TCA 10 μM in the lower chamber, fresh medium with or without inhibitor.

`Cn1c(CSc2nc3ccccc3s2)n[nH]c1=S` [Ceefourin1]: the “basolateral export of D4-TCA towards the lower chamber” value is “did not alter the basolateral export”.
